Results as given in patent US20180028601A1, “METHODS AND COMPOSITIONS FOR TREATING CANCER” (Yissum Research Development Company of The Hebrew …, priority 2016, published 2018).

Experiments:
[1] = system: high and intermediate Gal-GalNAc-expressing CRC cell lines (HCT116, CT26, RKO); assay: Flow cytometry attachment and GalNAc competition assays, high and intermediate Gal-GalNAc-expressing lines; assay type: cell-based, human and mouse; settings: p=0.04167
Method: Flow Cytometry and Competition Assays—FITC-labeled F. nucleatum were incubated with cells at a MOI of 10 for 30 min at room temperature. FITC-labeled PNA lectin (Sigma-Aldrich) was incubated at a final concentration of 140 nM per 2.5×10^5 cells. For competition experiments, bacteria or PNA was incubated with GalNAc (concentration range 0, 50, 100, and 300 mM) for 30 min prior to incubation with cells. Flow cytometry methods and analysis are as described in Abed et al. 2016. ibid, Supplemental Experimental Procedures.

[2] = system: human colon adenocarcinoma sections; assay: Binding of fluorescently labeled F. nucleatum to human colon tissue sections / TMA; settings: 300 mM GalNAc
Method: Tissue Microarray Analysis—Colon cancer tissue array CO2601 (US Biomax) and array CO809a (US Biomax) were used in these studies. Details about the cases for each core on the array are available on the US Biomax Web site.
Immunofluorescence and Section Preparation—Fixed tissue sections were stained with H&E or processed for immunofluorescence microscopy. Sections were blocked and incubated with fluorescent PNA or fluorescent bacteria and imaging analysis are as described in Abed et al. 2016. ibid, Supplemental Experimental Procedures. GalNAc removal was performed by incubating sections with O-glycanase.; see Supplemental Experimental Procedures for experimental details.

[3] = system: erythrocytes; assay: Hemagglutination assay; assay type: cell-based; settings: bacteria preincubated with 25 mM GalNAc
Method: Hemagglutination Assays—Hemagglutination assays were performed as previously described (Coppenhagen-Glazer et al., 2015, ibid). For inhibition assays, washed bacteria were preincubated with 25 mM GalNAc (Sigma-Aldrich) for 30 min prior to incubation with erythrocytes.

For `CC(=O)N[C@H]1C(O)O[C@H](CO)[C@H](O)[C@@H]1O` (stereo partly shown) [GalNAc], the “inhibition of F. nucleatum ATCC 23726 binding to cells” value ([1]; GalNAc 0, 50, 100, 300 mM) was “inhibited by GalNAc in a statistically significant, dose-dependent manner”, the “inhibition of CTI-2 binding to cells” value ([1]; soluble GalNAc 0-300 mM) was “inhibited by the addition of soluble GalNAc in a dose-dependent manner” and the “inhibition of binding of F. nucleatum ATCC 23726 to human CRC tissue sections” value [2] was “inhibits binding”. The “inhibition of CTI-2 hemagglutination” value [3] was “inhibited”.
